“Also recorded” adds a separate entry of the source. Like-named read-outs stand apart in the source and are kept apart here. Where a SMILES comes first, the peptide text is derived from it. [ ]: non-standard residue; d: D form. Orn(N5-OH,N5-Ac) = CC(=O)N(O)CCC[C@H](N)C(=O)O
Columns and labels:
[1] = test system: colorectal cancer cell line HT29; test: SRB assay, colorectal cancer cell line HT29; format: cell-based
[2] = test system: mouse primary intestinal epithelial cells; test: SRB assay, mouse primary intestinal epithelial cells; format: cell-based
Description: Mouse primary intestinal epithelial cells were prepared and cultured according to the method as reported previously (Liu X et al., Am J Pathol. 2012 February; 180(2): 599-607).

[3] = test system: pancreatic cancer cell line bxpc3; test: SRB assay, pancreatic cancer cell line bxpc3; format: cell-based
[4] = test system: rat intestinal epithelial cell line IEC-18; test: SRB assay, rat intestinal epithelial cell line IEC-18; details: rat intestinal epithelial cells
[5] = test system: colorectal cancer cell line SW620; test: SW620 subcutaneous transplantation in BALB/c-nude mice; format: in vivo; details: 10 μg/day to the transplantation site, daily, observed for 9 days, vs PBS
Source text: 2×10^6 cells of colorectal cancer cell line SW620 were transplanted subcutaneously into the back of BALB/c-nude mice. […] The appearance of the mice on day 1 after transplantation and on day 9 after transplantation are shown in FIG. 6, and the change in tumor mass volume is shown in FIG. 7, respectively.

[6] = test system: gastric cancer cell line MKN74; test: Antitumor activity, gastric cancer cell line MKN74; format: cell-based
[7] = test system: tumor in the large intestine; test: AOM-DSS chemical carcinogenic mice, intraperitoneal administration; format: in vivo; details: 100 μg intraperitoneally once every 2 days for 49 days, vs PBS
Description: Azoxymethane (AOM) was administered intraperitoneally at 10 mg/kg to BALB/c mice (6 weeks old, male). Following 1 week breeding after AOM treatment, mice were administered drinking water containing dextran sulfate sodium (DSS, MP bio) diluted to 1% with distilled water by free access for 1 week. After a 1-week wash-out period, 100 μg of ferrichrome dissolved in PBS was intraperitoneally administered once every 2 days for 49 days under normal breeding conditions. After breeding, the large intestine was taken out from the mice and the tumor area was measured.
(§1) Normal mice not administered AOM and DSS and chemical carcinogenic mice intraperitoneally administered PBS alone were prepared, respectively, and the tumor area in the large intestine was measured in the same manner. Photographs showing the appearance of the large intestine in each mouse are shown in FIG. 25, and tumor areas in the large intestine are shown in FIG. 26.

[8] = test system: gastric cancer cell line SH-10-TC; test: SRB assay, gastric cancer cell line SH-10-TC; format: cell-based
[9] = test system: pancreatic cancer cell Suit2; test: Suit2 subcutaneous transplantation in nude mice; format: in vivo; details: 100 μg intraperitoneally once every two days for 12 days, vs PBS
Description: Two days after subcutaneous transplantation of 1×10^6 pancreatic cancer cell Suit2 in two groups of nude mice (n=5/group), 100 μg of ferrichrome dissolved in PBS in one group and PBS alone in the other group were administered intraperitoneally once every two days for 12 days under normal breeding Conditions. A photograph of the transplantation site 12 days after transplantation is shown in FIG. 21, and the change in volume of the tumor mass is shown in FIG. 22.

[10] = Blood AST, ALT and serum iron in C57/BL6 mice; format: in vivo; details: oral or intravenous, 10 μg or 100 μg/day for 7 days, vs controls
Description: Blood AST (aspartate aminotransferase), ALT (alanine aminotransferase), and serum iron were measured in C57/BL6 mice (n=5) after oral or intravenous administration of 10 μg or 100 μg of ferrichrome/day for 7 days.

[11] = test system: gastric cancer cells MKN45; test: MKN45 subcutaneous transplantation in BALB/c nude mice; format: in vivo; details: 100 μg daily into the transplantation site, vs PBS
Description: Two groups of BALB/c nude mice (n=6/group) were transplanted with 1×10^6 gastric cancer cells MKN45 by subcutaneous injection into their back. Each day from the day following transplantation, 100 μg of ferrichrome dissolved in PBS in one group and PBS alone in the other group were administered into the transplantation site, and the mice were kept under normal breeding conditions for 21 days. Photographs of the transplantation site 1 day and 19 days after transplantation are shown in FIG. 19, and the change in tumor volume ratio when the tumor volume 1 day after transplantation set to 1 is shown in FIG. 20.

[12] = test system: esophageal cancer cell line OE33; test: SRB assay, esophageal cancer cell line OE33; format: cell-based
PARP = test: Western blotting for PARP in SW620; format: cell-based; details: ferrichrome-treated SW620, Western blotting
Source text: (§2) Total proteins recovered from the ferrichrome-treated colorectal cancer cell line SW620 using mammalian cell extraction kit (BioVision) were subjected to Western blotting using specific antibodies for cleaved caspase-3 and PARP (Cell Signaling), respectively.

[13] = test system: pancreatic cancer cell line suit2; test: SRB assay, pancreatic cancer cell line suit2; format: cell-based
[14] = test system: tumor in the large intestine; test: AOM-DSS chemical carcinogenic mice, oral administration; format: in vivo; details: 50 μg orally daily for 28 days, vs PBS
Description: Azoxymethane (AOM) was administered intraperitoneally at 10 mg/kg to BALB/c mice (6 weeks old, male). Following 1 week breeding after AOM treatment, mice were administered drinking water containing dextran sulfate sodium (DSS, MP bio) diluted to 1.5% with distilled water by free access for 1 week. After a 1-week wash-out period, mice were administered drinking water containing dextran sulfate sodium (DSS, MP bio) diluted to 1% with distilled water by free access for 1 week, to prepare chemical carcinogenic models. After one more 1-week wash-out period, 50 μg of ferrichrome diluted in PBS was orally administered daily for 28 days under normal breeding conditions. After breeding, the large intestine was taken out from the mice and the tumor area was measured.
as §1, with “orally” for “intraperitoneally”, “23,” for “25,”, “24.” for “26.”

phosphorylated JNK = test: Western blotting for phosphorylated JNK in SW620; format: cell-based; details: ferrichrome-treated SW620, Western blotting
[15] = test system: pancreatic cancer cell line KP1N; test: Antitumor activity, pancreatic cancer cell line KP1N; format: cell-based
[16] = test system: pancreatic cancer cell line KP3L; test: Antitumor activity, pancreatic cancer cell line KP3L; format: cell-based
[17] = test system: colorectal cancer cell line SW620; test: TUNEL staining of SW620; format: cell-based; details: SW620, 0.1 μg/mL
[18] = test system: colorectal cancer cell line Caco2/bbe; test: SRB assay, colorectal cancer cell line Caco2/bbe; format: cell-based
Description: (§3) L. casei ATCC334, LGG ATCC53103, L. coryniformis ATCC25600 and L. fermentis ATCC23271 were purchased from ATCC. These microorganisms were cultured overnight at 37° C. using MRS broth (Difco) and then transferred to MEM and cultured for one day. The cultured medium was centrifuged at 5,000×g for 10 minutes to collect the supernatant, which was filtered through a 0.2 μm filter and used as the culture supernatant in the following examples.
(§4) By using the colorectal cancer cell lines Caco2/bbe, SKCO-1 and SW620 as test cells and the culture supernatants of LGG ATCC53103, L. casei ATCC334, L. coryniformis ATCC25600 and L. fermentis ATCC23271 as measurement samples, an antitumor activity of each supernatant was measured by SRB-assay.

[19] = test system: DNA damage-inducible transcript 3 (DDIT3); test: DDIT3 expression in SW620; format: cell-based
Description: Changes in mRNA expression between ferrichrome-treated and untreated colorectal cancer cell line SW620 were measured by high-throughput sequence analysis using a MetaCore software program. […] DDIT3 is a protein known to be involved in Bax-Bak mitochondrial permeation and JNK signaling (Tabas I, Ron D. Nat Cell Biol. 2011 March; 13(3): 184-90).

[20] = test system: pancreatic cancer cell line KP3; test: Antitumor activity, pancreatic cancer cell line KP3; format: cell-based
cleaved caspase-3 = test: Western blotting for cleaved caspase-3 in SW620; format: cell-based; details: ferrichrome-treated SW620, Western blotting
Source text: as §2

[21] = test system: colorectal cancer cell line SW620; test: SRB assay, colorectal cancer cell line SW620; format: cell-based
Description: as §3, §4
This fraction was subjected to mass spectrometry (TOF, ionization method: micro ESI) using Nano Frontier elD Liquid Chromatograpy Mass Spectrometer (Hitachi High-technologies), and a chart shown in FIG. 3A was obtained. The peak at m/z 763.2 in this chart was approximately consistent with that in the chart obtained for commercial ferrichrome (Sigma-Aldrich) by mass spectrometry in a similar mannar (FIG. 3B). By using commercially available ferrichrome as a measurement sample and the colorectal cancer cell line SW620 as a test cell, an antitumor activity was measured.

[22] = test system: pancreatic cancer cell line Miapaca; test: Antitumor activity, pancreatic cancer cell line Miapaca; format: cell-based
[23] = test system: gastric cancer cell line MKN7; test: Antitumor activity, gastric cancer cell line MKN7; format: cell-based
[24] = test system: esophageal cancer cell line OE19; test: Antitumor activity, esophageal cancer cell line OE19; format: cell-based
[25] = test system: colorectal cancer cell line HCT116; test: SRB assay, colorectal cancer cell line HCT116; format: cell-based
[26] = test system: gastric cancer cell line MKN45; test: SRB assay, gastric cancer cell line MKN45; format: cell-based
[27] = test system: colorectal cancer cell line SKCO-1; test: SRB assay, colorectal cancer cell line SKCO-1; format: cell-based; details: SKCO-1, SRB assay
Description: as §3, §4

[28] = test system: rat intestinal epithelial cell line IEC-18

CC(=O)N([O-])CCC[C@@H]1NC(=O)CNC(=O)CNC(=O)CNC(=O)[C@H](CCCN([O-])C(C)=O)NC(=O)[C@H](CCCN([O-])C(C)=O)NC1=O.[Fe+3] [ferrichrome] (cyclo(GGG[Orn(N5-OH,N5-Ac)][Orn(N5-OH,N5-Ac)][Orn(N5-OH,N5-Ac)]))
antitumor activity [1]: exhibited an antitumor activity
effect on cell density of mouse primary intestinal epithelial cells [2]: not significantly reducing cell densities
antitumor activity (cell density, OD at 510 nm) [3]: dose-dependent antitumor activity
effect on cell density of IEC-18 [4]: not significantly reducing cell densities; also recorded: did not significantly affect the cell density
growth of the tumor mass (tumor mass volume) [5]: markedly inhibited the growth of the tumor mass
antitumor activity [6]: exhibit an antitumor activity
tumor area in the large intestine [7]: significantly suppressed
antitumor activity (cell density, OD at 510 nm) [8]: dose-dependent antitumor activity
increase in tumor volume [9]: markedly suppressed
blood ALT (alanine aminotransferase) [10]: No significant changes
blood AST (aspartate aminotransferase) [10]: No significant changes
serum iron [10]: No significant changes
tumor volume ratio (volume 1 day after transplantation set to 1) ([11]; 21 days): suppressed
tumor mass size at the transplantation site [11]: reduced to such an extent that it could be clearly distinguished by the naked eye
antitumor activity (cell density, OD at 510 nm) [12]: dose-dependent antitumor activity
expression of PARP (PARP): increased dose-dependently
antitumor activity (cell density, OD at 510 nm) [13]: dose-dependent antitumor activity
tumor area in the large intestine [14]: significantly suppressed
expression of phosphorylated JNK (phosphorylated JNK): increased
antitumor activity [15]: exhibit an antitumor activity
antitumor activity [16]: exhibit an antitumor activity
induction of apoptosis (TUNEL stain-positive cells) [17]: induction of apoptosis was also confirmed
antitumor activity (cell density, OD at 510 nm) [18]: dose-dependent antitumor activity
expression of DDIT3 ([19]; SW620, RT-PCR and Western blotting): enhanced expression
mRNA expression level of DDIT3 ([19]; SW620 treated vs untreated, high-throughput sequence analysis): remarkable change (increase in expression)
antitumor activity [20]: exhibit an antitumor activity
expression of cleaved caspase-3 (cleaved caspase-3): increased dose-dependently
antitumor activity (cell density, OD at 510 nm) [21]: dose-dependent antitumor activity
antitumor activity compared with 5-FU and cisplatin [21]: higher antitumor activity
antitumor activity (cell density, OD at 510 nm) ([21]; listed as Ferrichrome): strong antitumor activity
antitumor activity [22]: exhibit an antitumor activity
antitumor activity [23]: exhibit an antitumor activity
antitumor activity [24]: exhibit an antitumor activity
antitumor activity [25]: exhibited an antitumor activity
antitumor activity (cell density, OD at 510 nm) [26]: dose-dependent antitumor activity
antitumor activity (cell density, OD at 510 nm) [27]: exhibited an antitumor activity

O=c1[nH]cc(F)c(=O)[nH]1 [5-FU, 5-fluorouracil]
effect on cell density of IEC-18 [28]: reduced a cell density

N.N.[Cl][Pt][Cl] [cisplatin]
effect on cell density of IEC-18 [28]: reduced a cell density
